# Source: patent US20130040331A1, “LABEL-FREE METHODS RELATED TO hERG POTASSIUM ION [sequence]” (CORNING INCORPORATED, priority 2009, published 2013)
# How the values were obtained:
# hERG channel [1] = biological target: T1, hERG channel (Homo sapiens, UniProt Q12809); assay: Rb+ flux assay using HEK-hERG cells; settings: for effect on hERG ion flux (Rb+ flux, FIG. 6): HEK-hERG cells, overall statement, KCl and concentration not specified
# Experimental: Briefly, 50,000 cells per well were plated in 96-well tissue culture treated plates 20 hours before assay. In the next day, cells were incubated with complete cell culture medium containing 5 mM RbCl for 3 hours at 37° C. with 5% CO2. Then compounds (10×) diluted in HBSS were added into the cell culture medium and cells were incubated at 37° C. with 5% CO2 for another hour. Cells were washed twice with Rb^+ free cell culture medium and incubated with 180 μl/well of cell culture medium containing different concentration of KCl for exactly 10 minutes. The supernatant from each well was transferred to a new 96 well plate immediately. Cells were lysed with 180 μl/well 0.5% Triton-100 in HBSS. The Rb^+ concentration of each sample was determined by ICR8000 (Aurora Biomed Inc.).
# [2] = tested on: mallotoxin DMR signal in HEK-hERG cells; assay type: cell-based, human
# Excerpt: A “molecule modulation index” or like terms is an index to display the ability of the molecule to modulate the biosensor output signals of the panels of markers acting on the panel of cells. The modulation index is generated by normalizing a specific biosensor output signal parameter of a response of a cell upon stimulation with a marker in the presence of a molecule against that in the absence of any molecule.
# (§1) Epic® wavelength interrogation system (Corning Inc., Corning, N.Y.) was used for whole cell sensing. This system consists of a temperature-control unit, an optical detection unit, and an on-board liquid handling unit with robotics. The detection unit is centered on integrated fiber optics, and enables kinetic measures of cellular responses with a time interval of ˜15 sec.
# (§2) Cells were plated in 384-well Epic® cell culture treated plate (Corning Cat#5040) 16-20 hours before assay (15000 cells/well for HEK293 and HEK-hERG cells, 30000 cells/well for HT29 cells). For both HEK-hERG and its parental HEK293 cells, each well was coated with 10 μl 5 μg/ml fibronectin. One hour before assay, cells were washed twice on a BioTek ELx405 Select washer with Hank's Balanced Salt Solution (HBSS) containing 20 mM Hepes. Cells were incubated in 40 μl/well HBSS at 28° C. inside the Epic system for one hour. For each assay, a 2-min baseline was initiated, followed by addition of 10 μl compound solutions (5×) and the cell responses were recorded continuously for one hour.
# (§3) All studies were carried out at a controlled temperature (28° C.). At least two independent sets of experiments, each with at least three replicates, were performed. […] All dose-dependent responses were analyzed using non-linear regression method with the GraphPad Prism 5.
# The DMR modulation index was generated by normalizing the mallotoxin DMR signal in either cell line in the presence of compound […] to its corresponding DMR signal in the absence of the compound, and the percentage of modulation was based on the amplitude of the mallotoxin DMR signal at a specific time (−18 min after stimulation for HEK-hERG cells, and ˜50 min after stimulation for HT29 cells, respectively). Mallotoxin is known to display polypharmacology. It is also known to be a protein kinase C (PKC) inhibitor; and PKC is a downstream signaling component of hERG activation. Thus, it would be difficult or almost impossible to assign the mode(s) of action of mallotoxin to be a hERG activator when either cell line is individually assayed with the label-free biosensor (i.e., Epic® system). […] However, combining the primary DMR profiles of a compound across the three cell lines tested with the modulation index of the compound against the mallotoxin responses in both HT29 and […] cells can correctly identify whether the compound is a hERG activator or not. The results shown in FIG. 1 indicate that indeed mallotoxin is a hERG activator; and the activation of hERG can result in detectable biosensor responses in the two hERG expressing cell lines.
# hERG channel [3] = biological target: T1, hERG channel; assay: Automated patch clamp recording of hERG current using IonWorks, CHO-hERG cells; settings: for effect on hERG tail current: 50 μM, tail current at return to −35 mV; for effect on hERG current: final compound concentration 50 μM
# Experimental: CHO—K1 cells stably expressing hERG channel (CHO-hERG) were cultured in T175 flask till about 70% confluent. Cells were washed twice with PBS, then 2.5 ml 0.25% Trypsin/EDTA was mixed with 2.5 ml PBS and added to the T175 flask. Cells were incubated about 2 minutes with the diluted Trypsin/EDTA solution at 37° C., then were continuously incubated about 3 minutes at room temperature. 20 ml fresh medium were added to suspend the cells and transfer to a 50 ml tube. Cells were centrifuged down at 750 rpm for 5 minutes. The extra medium was removed and cells were resuspended in 6 ml External Buffer (137 mM NaCl, 4 mM KCl, 1.8 mM CaCl2, 1 mM MgCl2, 10 mM HEPES, 10 mM glucose, pH 7.4). Then cells were centrifuged again at 450 rpm for another 5 minutes. Finally cells were resuspended in 4 ml the External Buffer, cell number was counted using a hemacytometer. Cell suspension was diluted to 2.5×10^6 cells/ml with the External Buffer. 4 ml of the resuspended cells were added to the cell reservoir in IonWorks. The Internal solution used contains: 40 mM KCl, 100 mM K-Gluconate, 3.2 mM MgCl2, 2 mM CaCl2, 5 mM HEPES, pH 7.25 (adjusted with KOH). 5 mg Amphotericin B from 200 ul DMSO stock was added to 65 ml the Internal solution and mixed well to achieve electrical access to the interior of cells on the patch plate.
# Compounds were prepared from 10 mM DMSO stock and diluted in the External Buffer to make 3× compound solution. […] of the 3× compound solution was transferred to a 384 well plate in Row A, B, C and D. PD11857 (Sigma-Aldrich), a reported hERG channel activator was used as activator positive control (final concentration 30 and 50 μM). hERG blocker dofetilide was used as blocker positive control (final concentration 100 nM). The final DMSO concentration in the IonWorks Quattro PatchPlate PPC plate (Cat#9000-0902, Molecular Devices) was 0.5%. Final compound concentration was 50 μM. Each compound was added to four wells of one PPC plate.
# hERG currents were recorded on IonWorks Quattro (Molecular Devices). To record hERG current, the cells were clamped at −80 mV initially, then followed by a 5-s depolarization at +40 mV to activate the channels. Tail currents were measured during an ensuing return to −35 mV. Data analysis were done using IonWorks Quttro® System Software version 2.0.4.4. Data from wells with seal resistance less than 50 MΩ or hERG tail currents less than 0.1 nA were filtered out. […] Inhibitor hits were selected if hERG tail currents ratio (post/pre-compound) is less than mean-2SD of the average DMSO control.
# To record hERG current, the cells were clamped at −80 mV initially, then followed by a 5-s depolarization at +40 mV to activate the channels (phase a in FIG. 10A). Tail currents were measured during an ensuing return to −35 mV for 2 seconds (phase b in FIG. 10A). Final holding potential at −70 mV (phase c in FIG. 10B).
# HEK-hERG cells = assay: Label-free RWG biosensor (Epic) DMR assay, agonism mode, HEK-hERG cells stably expressing hERG; assay type: cell-based, human
# Experimental: as §1, §2, §3
# Three different types of cells: human colon cancerous cell line HT-29, HEK293 and its engineered HEK-hERG cell lines were used. HT-29 is known to endogenously express hERG channels. HEK293 is a native cell line without endogenously expressed hERG channels, while HEK-hERG is an engineered HEK293 cells having stably expressed hERG channels. Mallotoxin, a newly discovered hERG activator, was used to activate hERG channels at or near physiological conditions (i.e., 1×HBSS buffered conditions).
# [4] = 5 mM KCl, compound at 10 or 50 μM
# T1 sequence (Q12809 whole entry): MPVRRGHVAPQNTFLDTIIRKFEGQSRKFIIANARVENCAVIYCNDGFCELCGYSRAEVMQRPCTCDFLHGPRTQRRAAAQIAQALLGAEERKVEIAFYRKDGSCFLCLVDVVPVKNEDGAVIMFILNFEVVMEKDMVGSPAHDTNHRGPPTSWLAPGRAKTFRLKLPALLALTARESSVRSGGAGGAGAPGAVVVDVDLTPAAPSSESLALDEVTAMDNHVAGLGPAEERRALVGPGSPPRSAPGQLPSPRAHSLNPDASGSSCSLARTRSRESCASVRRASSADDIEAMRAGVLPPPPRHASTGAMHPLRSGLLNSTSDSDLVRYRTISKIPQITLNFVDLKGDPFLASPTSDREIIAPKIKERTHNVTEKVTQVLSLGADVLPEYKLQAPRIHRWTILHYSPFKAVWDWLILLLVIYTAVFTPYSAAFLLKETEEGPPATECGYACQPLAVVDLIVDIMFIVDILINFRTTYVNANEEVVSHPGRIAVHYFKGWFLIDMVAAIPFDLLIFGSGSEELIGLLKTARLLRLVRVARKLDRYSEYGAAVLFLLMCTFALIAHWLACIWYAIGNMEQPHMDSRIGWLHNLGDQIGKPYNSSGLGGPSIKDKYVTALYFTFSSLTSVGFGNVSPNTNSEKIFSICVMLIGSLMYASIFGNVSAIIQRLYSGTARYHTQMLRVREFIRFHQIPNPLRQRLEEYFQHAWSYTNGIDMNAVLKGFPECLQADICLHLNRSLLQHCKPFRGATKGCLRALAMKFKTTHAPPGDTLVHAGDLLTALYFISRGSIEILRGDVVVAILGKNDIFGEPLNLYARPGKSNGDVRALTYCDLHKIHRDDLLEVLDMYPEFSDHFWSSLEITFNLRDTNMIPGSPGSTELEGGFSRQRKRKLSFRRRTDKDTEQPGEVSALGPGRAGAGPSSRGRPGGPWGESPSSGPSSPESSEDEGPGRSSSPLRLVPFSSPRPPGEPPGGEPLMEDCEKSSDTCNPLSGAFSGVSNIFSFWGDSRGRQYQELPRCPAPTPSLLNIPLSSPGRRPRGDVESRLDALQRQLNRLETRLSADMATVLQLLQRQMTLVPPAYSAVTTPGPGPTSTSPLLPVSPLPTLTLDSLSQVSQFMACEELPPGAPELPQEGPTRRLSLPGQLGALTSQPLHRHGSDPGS
Structure (SMILES),Rb+ signal in HEK-hERG cells (hERG channel [1]; [4]),"effect on hERG ion flux (Rb+ flux, FIG. 6) (hERG channel [1])","score of modulation index in coordination, HEK-hERG coordinate ([2]; 10% modulation = 1 score unit)","modulation index against mallotoxin in HEK-hERG cells ([2]; compound 10 micromolar, mallotoxin 16 micromolar, amplitude 18 min after stimulation)",effect on hERG tail current (hERG channel [3]),effect on hERG current (hERG channel [3]),DMR signal in HEK-hERG cells (HEK-hERG cells; compound at 10 μM),"Rb+ signal in HEK-hERG cells (hERG channel [1]; 40 mM KCl, compound at 10 μM)","modulation of the mallotoxin DMR signal in HEK-hERG cells ([2]; pretreatment with 16 micromolar compound, then 16 micromolar mallotoxin)",effect on hERG current (hERG channel [3]; listed as Mallotoxin),"EC50 (HEK-hERG cells; amplitudes at 18 min after stimulation, read-out: apparent EC50 of dose-dependent DMR signal in HEK-hERG cells) [µM]",DMR signal in HEK-hERG cells (HEK-hERG cells; compound at 16 micromolar)
O=C(O)c1ccccc1Nc1cccc(C(F)(F)F)c1 [flufenamic acid],small and dose-dependent increase,weak hERG ion flux activator,1,~+12%,significantly increased,weak hERG current activator,robust DMR signals,–,–,–,–,–
CC(=O)c1c(O)c(C)c(O)c(Cc2c(O)c3c(c(C(=O)/C=C/c4ccccc4)c2O)OC(C)(C)C=C3)c1O [mallotoxin],significant increase,strong hERG ion flux activator,–,–,significantly increases,significantly increases,–,obvious increase,completely caused the desensitization,strong hERG current activator,~25,robust DMR signal
